Measurements: the NIST ThermoML archive (doi:10.1021/je500980a)

Settings: Liquid

CCCCCCCCCC(=O)OCC [ethyl decanoate]
viscosity [mPa·s]
Settings | 293.15 K | 313.15 K | 333.15 K | 353.15 K
101.3 kPa, Falling or rolling sphere viscometry | 2.34 | 1.59 | 1.16 | 0.888
101.3 kPa, Quartz crystal resonator | 2.33 | 1.59 | 1.16 | 0.893
10000 kPa, Quartz crystal resonator | 2.59 | 1.77 | 1.28 | 1
20000 kPa, Falling or rolling sphere viscometry | 2.94 | 1.96 | 1.44 | 1.1
20000 kPa, Quartz crystal resonator | 2.91 | 1.97 | 1.43 | 1.1
30000 kPa, Quartz crystal resonator | 3.22 | 2.18 | 1.59 | 1.21
40000 kPa, Falling or rolling sphere viscometry | 3.62 | 2.38 | 1.74 | 1.32
40000 kPa, Quartz crystal resonator | 3.57 | 2.39 | 1.74 | 1.32
50000 kPa, Quartz crystal resonator | 3.95 | 2.62 | 1.87 | 1.45
60000 kPa, Falling or rolling sphere viscometry | 4.4 | 2.85 | 2.06 | 1.56
60000 kPa, Quartz crystal resonator | 4.35 | 2.86 | 2.07 | 1.58
70000 kPa, Quartz crystal resonator | 4.8 | 3.14 | 2.2 | 1.72
80000 kPa, Falling or rolling sphere viscometry | 5.29 | 3.37 | 2.42 | 1.82
80000 kPa, Quartz crystal resonator | 5.23 | 3.44 | 2.37 | 1.84
90000 kPa, Quartz crystal resonator | 5.74 | 3.72 | 2.59 | 1.98
100000 kPa, Falling or rolling sphere viscometry | 6.3 | 3.96 | 2.81 | 2.1
100000 kPa, Quartz crystal resonator | 6.25 | 4.04 | 2.82 | 2.13
120000 kPa, Falling or rolling sphere viscometry | 7.45 | 4.62 | 3.23 | 2.4
120000 kPa, Quartz crystal resonator | 7.46 | 4.69 | 3.27 | 2.42
140000 kPa, Falling or rolling sphere viscometry | 8.78 | 5.35 | 3.7 | 2.73
140000 kPa, Quartz crystal resonator | 8.83 | 5.52 | 3.72 | 2.74
160000 kPa, Falling or rolling sphere viscometry | 10.3 | 6.18 | 4.22 | 3.08
160000 kPa, Quartz crystal resonator | 10.7 | 6.27 | 4.25 | 3.14
180000 kPa, Falling or rolling sphere viscometry | 12.06 | 7.11 | 4.78 | 3.46
180000 kPa, Quartz crystal resonator | 12.4 | 7.31 | 4.7 | 3.53
200000 kPa, Falling or rolling sphere viscometry | 14.1 | 8.16 | 5.41 | 3.88
200000 kPa, Quartz crystal resonator | 14.5 | 8.36 | 5.36 | 3.98

CCCCCCCCCC(=O)OC [methyl decanoate]
viscosity [mPa·s]
Settings | 293.15 K | 313.15 K | 333.15 K | 353.15 K
101.3 kPa, Falling or rolling sphere viscometry | 2.15 | 1.46 | 1.07 | 0.825
101.3 kPa, Quartz crystal resonator | 2.13 | 1.5 | 1.08 | 0.837
10000 kPa, Quartz crystal resonator | 2.36 | 1.66 | 1.19 | 0.927
20000 kPa, Falling or rolling sphere viscometry | 2.66 | 1.83 | 1.32 | 1.01
20000 kPa, Quartz crystal resonator | 2.62 | 1.84 | 1.3 | 1.02
30000 kPa, Quartz crystal resonator | 2.92 | 2 | 1.43 | 1.12
40000 kPa, Falling or rolling sphere viscometry | 3.24 | 2.21 | 1.58 | 1.21
40000 kPa, Quartz crystal resonator | 3.21 | 2.2 | 1.55 | 1.22
50000 kPa, Quartz crystal resonator | 3.53 | 2.39 | 1.68 | 1.31
60000 kPa, Falling or rolling sphere viscometry | 3.91 | 2.65 | 1.86 | 1.42
60000 kPa, Quartz crystal resonator | 3.87 | 2.59 | 1.81 | 1.42
70000 kPa, Quartz crystal resonator | 4.22 | 2.82 | 1.97 | 1.53
80000 kPa, Falling or rolling sphere viscometry | 4.67 | 3.12 | 2.17 | 1.64
80000 kPa, Quartz crystal resonator | 4.61 | 3.06 | 2.11 | 1.63
90000 kPa, Quartz crystal resonator | 5.02 | 3.29 | 2.26 | 1.75
100000 kPa, Falling or rolling sphere viscometry | 5.53 | 3.63 | 2.5 | 1.88
100000 kPa, Quartz crystal resonator | 5.47 | 3.56 | 2.43 | 1.87
120000 kPa, Falling or rolling sphere viscometry | 6.52 | 4.21 | 2.86 | 2.13
120000 kPa, Quartz crystal resonator | 6.47 | 4.1 | 2.76 | 2.13
140000 kPa, Falling or rolling sphere viscometry | 7.66 | 4.85 | 3.26 | 2.41
140000 kPa, Quartz crystal resonator | 7.82 | 4.75 | 3.19 | 2.41
160000 kPa, Falling or rolling sphere viscometry | 8.96 | 5.56 | 3.7 | 2.71
160000 kPa, Quartz crystal resonator | 9.17 | 5.43 | 3.62 | 2.72
180000 kPa, Falling or rolling sphere viscometry | – | 6.35 | 4.18 | 3.03
180000 kPa, Quartz crystal resonator | – | 6.29 | 4.07 | 3.05
200000 kPa, Falling or rolling sphere viscometry | – | 7.24 | 4.7 | 3.38
200000 kPa, Quartz crystal resonator | – | 7.13 | 4.54 | 3.41
